Where two headings read alike, the source gives them in different places. Numbered stars: 1 amine (or outer) side, 2 acyl side, 3 side chain; on linkers, the order of the positions; unused ones are H or OH. Square brackets hold non-standard residues; d marks the D form. Side chains are listed from the residue outwards. Peptide text beside a SMILES is read from it. * marks the point of attachment. C18 diacid = O=C(O)CCCCCCCCCCCCCCCCC(=O)*; γGlu = O=C(O)[C@H](CCC(=O)[*:2])N[*:1]; αMeF = C[C@](N)(Cc1ccccc1)C(=O)O; αMeK = C[C@](N)(CCCCN)C(=O)O; αMeS = C[C@](N)(CO)C(=O)O; AEEA = NCCOCCOCC(=O)O; Aib = CC(C)(N)C(=O)O
Key:
[1] = target: T1, human GLP-1 receptor (GLP-1R) (Homo sapiens, UniProt P43220); assay: cAMP assay, human GLP-1R cells; type: cell-based
T1 construct: expressed in transfected cells
T1 sequence (P43220 24-463): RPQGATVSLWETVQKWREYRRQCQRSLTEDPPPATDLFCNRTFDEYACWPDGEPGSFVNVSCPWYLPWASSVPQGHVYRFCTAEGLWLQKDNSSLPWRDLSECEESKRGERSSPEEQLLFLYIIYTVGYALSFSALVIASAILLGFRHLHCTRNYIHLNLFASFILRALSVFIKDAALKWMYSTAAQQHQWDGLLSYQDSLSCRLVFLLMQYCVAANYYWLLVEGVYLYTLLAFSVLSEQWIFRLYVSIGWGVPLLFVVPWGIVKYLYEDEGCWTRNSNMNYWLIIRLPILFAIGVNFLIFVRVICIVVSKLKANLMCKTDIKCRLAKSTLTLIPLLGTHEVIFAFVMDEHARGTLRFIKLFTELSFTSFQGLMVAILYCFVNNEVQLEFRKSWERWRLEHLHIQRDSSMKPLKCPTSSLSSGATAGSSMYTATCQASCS
How it was run: (§1)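 Peptide-stimulated cAMP measured by two-step HTRF after a 30 min room-temperature incubation with receptor-expressing cells (hGLP-1R, hGIPR at 1×10^5 cells/ml; hGCGR at 2×10^5 cells/ml). Duplicate dilutions; EC50 from 4-parameter logistic fit of % Delta F.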

trypsin = target: T2, trypsin (Sus scrofa, UniProt P00761); assay: Proteolytic resistance to trypsin (% remaining intact peptide, RP-HPLC AUC); type: in vitro ADME; conditions: pig, porcine pancreatic trypsin, 37° C., pH 7.8, read-out: Percentage remaining intact peptide (AUC by RP-HPLC) upon incubation with trypsin; for remaining at 0.5 h: t = 30 min; for remaining at 1 h: t = 1 hr; for remaining at 2 h: t = 2 hr; for remaining at 4 h: t = 4 hr; for remaining at 8 h: t = 8 hr; for remaining at 24 h: t = 24 hr
T2 construct: purchased Sigma T7409
T2 sequence (P00761 9-231): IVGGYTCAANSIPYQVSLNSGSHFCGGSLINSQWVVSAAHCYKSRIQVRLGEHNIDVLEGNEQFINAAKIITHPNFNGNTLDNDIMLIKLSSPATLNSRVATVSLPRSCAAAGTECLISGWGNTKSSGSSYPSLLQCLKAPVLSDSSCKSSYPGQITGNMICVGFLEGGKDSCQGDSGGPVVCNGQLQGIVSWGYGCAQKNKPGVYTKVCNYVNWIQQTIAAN
Source text: Ratio enzyme (units):peptide (μmoles)˜1:11. […] Ratio enzyme (units):peptide (μmoles)˜1.2:1.

[2] = target: T3, human glucagon receptor (GCGR) (Homo sapiens, UniProt P47871); assay: cAMP assay, human GCGR cells; type: cell-based; conditions: cAMP assay
T3 construct: expressed in transfected cells
T3 sequence (P47871 26-477): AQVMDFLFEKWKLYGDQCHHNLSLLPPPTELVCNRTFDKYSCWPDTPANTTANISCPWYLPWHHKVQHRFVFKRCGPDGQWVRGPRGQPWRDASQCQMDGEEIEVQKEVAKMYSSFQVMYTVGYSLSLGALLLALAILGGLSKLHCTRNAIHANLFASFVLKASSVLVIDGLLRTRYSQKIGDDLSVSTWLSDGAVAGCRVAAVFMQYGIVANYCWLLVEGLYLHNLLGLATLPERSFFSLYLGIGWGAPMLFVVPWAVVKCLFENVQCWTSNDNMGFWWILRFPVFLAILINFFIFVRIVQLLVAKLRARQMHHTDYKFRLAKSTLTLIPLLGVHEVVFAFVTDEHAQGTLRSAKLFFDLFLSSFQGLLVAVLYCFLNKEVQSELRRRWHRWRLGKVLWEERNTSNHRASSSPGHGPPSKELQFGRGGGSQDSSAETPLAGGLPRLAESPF
How it was run: as §1

Neprilysin = target: T4, Neprilysin (Homo sapiens, UniProt P08473); assay: Proteolytic resistance to neprilysin (% remaining peptide, RP-HPLC AUC); type: in vitro ADME; conditions: 37° C., pH 8.3; for remaining at 0.5 h / remaining at 1 h / remaining at 2 h / remaining at 4 h / remaining at 8 h / remaining at 24 h: recombinant neprilysin; for remaining at 0.5 h: t = 30 min; for remaining at 1 h: t = 1 hr; for remaining at 2 h: t = 2 hr; for remaining at 4 h: t = 4 hr; for remaining at 8 h: t = 8 hr; for remaining at 24 h: t = 24 hr, read-out: Percentage remaining peptide (AUC at specified time-point by RP-HPLC) upon incubation with neprilysin, t = 24 hr
T4 construct: purchased R&D Systems 1182-ZNC-010
T4 sequence (P08473 whole entry): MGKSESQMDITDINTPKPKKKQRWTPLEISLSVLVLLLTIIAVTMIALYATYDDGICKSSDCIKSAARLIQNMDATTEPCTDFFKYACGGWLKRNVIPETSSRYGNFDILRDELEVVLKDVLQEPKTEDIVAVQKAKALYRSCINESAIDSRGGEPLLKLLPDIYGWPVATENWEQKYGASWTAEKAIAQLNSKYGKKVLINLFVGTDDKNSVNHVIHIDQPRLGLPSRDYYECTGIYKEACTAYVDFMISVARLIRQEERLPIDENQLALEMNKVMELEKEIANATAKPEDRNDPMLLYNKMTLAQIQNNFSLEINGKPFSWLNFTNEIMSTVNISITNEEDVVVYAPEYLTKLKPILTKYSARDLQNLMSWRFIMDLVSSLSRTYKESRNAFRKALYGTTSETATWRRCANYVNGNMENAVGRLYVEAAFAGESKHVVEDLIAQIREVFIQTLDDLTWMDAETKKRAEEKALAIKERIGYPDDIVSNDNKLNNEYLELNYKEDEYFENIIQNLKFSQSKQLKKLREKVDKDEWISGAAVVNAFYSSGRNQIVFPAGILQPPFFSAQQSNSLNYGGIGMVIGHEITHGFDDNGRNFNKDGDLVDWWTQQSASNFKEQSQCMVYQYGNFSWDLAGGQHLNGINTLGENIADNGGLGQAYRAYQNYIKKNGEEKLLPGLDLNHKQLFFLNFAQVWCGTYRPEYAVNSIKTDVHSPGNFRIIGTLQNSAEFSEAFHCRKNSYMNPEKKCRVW
Method: Ratio enzyme (units):peptide (μmoles)˜1:33. […] Ratio enzyme (units):peptide (μmoles)˜1:2.5.
15 μL aliquots (˜15 μg initial peptide) of the peptide-enzyme mixture were periodically withdrawn (t=0, 30 mins, 1 hr, 2 hr, 4 hr, 8 hr, 24 hr) and quenched immediately by addition to an equal volume (15 μL) of 5% TFA (v/v) in 1:1 water/acetonitrile to arrest proteolytic activity. 20 μL aliquots (˜10 μg initial peptide) were analyzed by LC/MS and/or analytical RP-HPLC as follows: LC/MS method: Agilent Polaris C8-A column (4.6×100 mm, 3 micron) eluted with a linear binary gradient of 10-90% MeCN (0.1% TFA v/v) in water (0.1% TFA v/v) over 30 mins at 1.5 mL min-1 at ambient temperature with detection by both UV absorption at 210 nm and ionization using a Waters 3100 mass detector (ESI+ mode). Peptide fragments deriving from enzymatic hydrolysis were identified by molecular weight, allowing location of the site of cleavage. Analytical RP-HPLC method: Agilent Polaris C8-A column (4.6×100 mm, 3 micron) eluted with a linear binary gradient of 10-90% MeCN (0.1% TFA v/v) in water (0.1% TFA v/v) over either 10 or 15 mins at 1.5 mL min^−1 at 40° C. with detection by UV absorption at 210 nm. Manual integration (AUC) allowed estimation of remaining intact peptide over the time course of the experiment.
25 μL aliquots (˜6 μg initial peptide) were analyzed by LC/MS and/or analytical RP-HPLC as follows: LC/MS method: Agilent Polaris C8-A column (4.6×100 mm, 3 micron) eluted with a linear binary gradient of 10-90% MeCN (0.1% TFA v/v) in water (0.1% TFA v/v) over 30 mins at 1.5 mL min^−1 at ambient temperature with detection by both UV absorption at 210 nm and ionization using a Waters 3100 mass detector (ESP mode). Peptide fragments deriving from enzymatic hydrolysis were identified by molecular weight, allowing location of the site of cleavage. Analytical RP-HPLC method: Agilent Polaris C8-A column (4.6×100 mm, 3 micron) eluted with a linear binary gradient of 10-90% MeCN (0.1% TFA v/v) in water (0.1% TFA v/v) over either 10 or 15 mins at 1.5 mL min^−1 at 40° C. with detection by UV absorption at 210 nm. Manual integration (AUC) allowed estimation of remaining intact peptide over the time course of the experiment.

pepsin = target: T5, pepsin (Sus scrofa, UniProt P00791); assay: Proteolytic resistance to pepsin (% remaining intact peptide, RP-HPLC AUC); type: in vitro ADME; conditions: pig, porcine pepsin, 37° C., pH 2.0, read-out: Percentage remaining intact peptide (AUC by RP-HPLC) upon incubation with pepsin; for remaining at 0.5 h: t = 30 min; for remaining at 1 h: t = 1 hr; for remaining at 2 h: t = 2 hr; for remaining at 4 h: t = 4 hr; for remaining at 8 h: t = 8 hr; for remaining at 24 h: t = 24 hr
T5 construct: purchased Sigma P7012
T5 sequence (P00791 60-385): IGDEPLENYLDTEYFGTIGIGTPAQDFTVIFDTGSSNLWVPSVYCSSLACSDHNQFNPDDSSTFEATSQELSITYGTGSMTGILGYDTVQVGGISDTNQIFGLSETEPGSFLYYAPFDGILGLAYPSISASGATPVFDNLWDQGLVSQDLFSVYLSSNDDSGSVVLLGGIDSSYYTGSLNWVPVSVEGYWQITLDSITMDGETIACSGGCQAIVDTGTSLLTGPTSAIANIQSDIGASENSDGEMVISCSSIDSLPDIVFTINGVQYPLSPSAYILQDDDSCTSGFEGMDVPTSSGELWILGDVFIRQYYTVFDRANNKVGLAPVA
Method: Lyophilized porcine […] pepsin (Sigma: P7012) was reconstituted to afford a solution of 200 μg/mL (˜500 units/mL) in assay buffer (0.1 M HCl, pH 2.0) to give the enzyme stock solution. […] Ratio enzyme (units):peptide (μmoles)˜1:6. […] Ratio enzyme (units):peptide (μmoles)˜2:1.
Lyophilized porcine […] pepsin (Sigma: P7012) was reconstituted to 200 μg/mL (˜500 units/mL) in assay buffer (1.0 M HCl, pH 2.0) to give the enzyme stock solution.

[3] = target: T6, human glucose-dependent insulinotropic peptide receptor (GIPR) (Homo sapiens, UniProt P48546); assay: cAMP assay, human GIPR cells; type: cell-based; conditions: cAMP assay
T6 construct: expressed in transfected cells
T6 sequence (P48546 22-466): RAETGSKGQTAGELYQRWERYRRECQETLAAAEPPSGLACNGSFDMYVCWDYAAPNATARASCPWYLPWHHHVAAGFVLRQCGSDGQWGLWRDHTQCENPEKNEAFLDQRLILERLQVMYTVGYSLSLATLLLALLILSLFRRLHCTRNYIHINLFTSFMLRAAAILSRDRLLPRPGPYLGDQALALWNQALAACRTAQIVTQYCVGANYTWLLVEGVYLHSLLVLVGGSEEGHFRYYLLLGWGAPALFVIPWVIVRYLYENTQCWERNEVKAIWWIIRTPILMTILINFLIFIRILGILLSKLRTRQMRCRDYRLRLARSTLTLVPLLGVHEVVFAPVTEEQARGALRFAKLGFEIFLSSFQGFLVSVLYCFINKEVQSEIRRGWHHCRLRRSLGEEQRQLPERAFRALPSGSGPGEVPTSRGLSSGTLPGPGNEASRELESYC
How it was run: as §1

GLP-1R (INS1e assay) = target: T7, GLP-1R (INS1e assay) (Rattus norvegicus, UniProt P32301); assay: INS1e assay, cAMP activity at GLP-1R; type: cell-based; conditions: mono-lipidated peptides
T7 construct: endogenous in cells; host or cells: INS-1E cells
T7 sequence (P32301 22-463): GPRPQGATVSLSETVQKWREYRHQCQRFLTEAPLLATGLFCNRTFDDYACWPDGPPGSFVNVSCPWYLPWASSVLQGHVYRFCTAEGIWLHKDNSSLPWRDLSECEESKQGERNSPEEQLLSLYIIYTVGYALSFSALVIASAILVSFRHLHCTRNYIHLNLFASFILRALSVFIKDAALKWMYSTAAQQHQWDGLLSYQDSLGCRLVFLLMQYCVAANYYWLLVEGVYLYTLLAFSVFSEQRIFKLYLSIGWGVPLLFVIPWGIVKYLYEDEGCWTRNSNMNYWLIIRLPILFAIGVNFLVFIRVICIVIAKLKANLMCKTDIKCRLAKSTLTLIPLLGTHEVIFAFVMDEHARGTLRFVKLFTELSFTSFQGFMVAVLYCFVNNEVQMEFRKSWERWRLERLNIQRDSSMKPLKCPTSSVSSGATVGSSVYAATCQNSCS
How it was run: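 It pairs cAMP-d2 acceptor with anti-cAMP cryptate donor, both prepared 1/20 in conjugate/lysis buffer, applied as a two-step protocol.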

[4] = cAMP assay, first determination (n1), read-out: Primary assay EC50 GLP-1R n1
[5] = cAMP assay, second determination (n2), read-out: Primary assay EC50 GLP-1R n2
[6] = mean of n1 and n2, read-out: Mean pM GLP-1R
[7] = first determination (n1), read-out: Primary assay EC50 Gluc-R (n1)
[8] = second determination (n2), read-out: Primary assay EC50 Gluc-R (n2)
[9] = first determination (n1), read-out: Primary assay EC50 GIP-R (n1)
[10] = second determination (n2), read-out: Primary assay EC50 GIP-R (n2)
[11] = mean of n1 and n2, read-out: INS1e assay EC50 Mean pM GLP-1R
[12] = replicate n1, read-out: INS1e assay EC50 GLP-1R n1
[13] = replicate n2, read-out: INS1e assay EC50 GLP-1R n2

SMILES | EC50 [1, 4] | EC50 [1, 5] | EC50 [1, 6] | remaining at 0.5 h (trypsin) | remaining at 1 h (trypsin) | remaining at 2 h (trypsin) | remaining at 4 h (trypsin) | remaining at 8 h (trypsin) | remaining at 24 h (trypsin) | EC50 [2, 7] | EC50 [2, 8] | remaining at 0.5 h (Neprilysin) | remaining at 1 h (Neprilysin) | remaining at 2 h (Neprilysin) | remaining at 4 h (Neprilysin) | remaining at 8 h (Neprilysin) | remaining at 24 h (Neprilysin) | Percentage remaining peptide (AUC at specified time-point by RP-HPLC) upon incubation with neprilysin, t = 0 (Neprilysin) | remaining at 0.5 h (pepsin) | remaining at 1 h (pepsin) | also measured
CC[C@H](C)[C@H](NC(=O)[C@H](Cc1ccccc1)NC(=O)[C@H](CCC(=O)O)NC(=O)[C@H](CCCCNC(=O)COCCOCCNC(=O)COCCOCCNC(=O)CC[C@H](NC(=O)CCCCCCCCCCCCCCCCC(=O)O)C(=O)O)NC(=O)[C@H](C)NC(=O)[C@H](C)NC(=O)[C@H](CCC(=O)O)NC(=O)CNC(=O)[C@H](CCC(=O)O)NC(=O)[C@H](CC(C)C)NC(=O)[C@](C)(Cc1ccccc1)NC(=O)[C@H](CO)NC(=O)[C@](C)(CO)NC(=O)[C@@H](NC(=O)[C@H](CC(=O)O)NC(=O)[C@H](CO)NC(=O)[C@@H](NC(=O)[C@](C)(Cc1ccccc1)NC(=O)[C@H](CO)NC(=O)CNC(=O)[C@H](CCC(=O)O)NC(=O)C(C)(C)NC(=O)[C@@H](N)Cc1c[nH]cn1)[C@@H](C)O)C(C)C)C(=O)N[C@@H](C)C(=O)N[C@@](C)(Cc1ccccc1)C(=O)N[C@H](C(=O)N[C@H](C(=O)N[C@@](C)(CCCCN)C(=O)NCC(=O)NCC(N)=O)C(C)C)C(C)C [compound 48] | 3.9 pM | 8.2 pM | 6.1 pM | 93% | 89.2% | 83.5% | 75.6% | 68.9% | 56.5% | ≥ 26 nM | ≥ 26 nM | 96.8% | 96.5% | 93% | 93.9% | 89.5% | 90% | 100% | 89.1% | 80.8% | remaining at 2 h (pepsin): 71.4%; remaining at 4 h (pepsin): 60.6%; remaining at 8 h (pepsin): 45.9%; remaining at 24 h (pepsin): 9.4%; EC50 [3, 9]: ≥ 26 nM; EC50 [3, 10]: ≥ 26 nM; EC50 (GLP-1R (INS1e assay); [11]): 800 pM; EC50 (GLP-1R (INS1e assay); [12]): 729 pM; EC50 (GLP-1R (INS1e assay); [13]): 871 pM
CC[C@H](C)[C@H](NC(=O)[C@H](Cc1ccccc1)NC(=O)[C@H](CCC(=O)O)NC(=O)[C@](C)(CCCCN)NC(=O)[C@H](C)NC(=O)[C@H](C)NC(=O)[C@H](CCC(=O)O)NC(=O)CNC(=O)[C@H](CCC(=O)O)NC(=O)[C@H](CC(C)C)NC(=O)[C@](C)(Cc1ccccc1)NC(=O)[C@H](CO)NC(=O)[C@](C)(CO)NC(=O)[C@@H](NC(=O)[C@H](CC(=O)O)NC(=O)[C@H](CO)NC(=O)[C@@H](NC(=O)[C@](C)(Cc1ccccc1)NC(=O)[C@H](CO)NC(=O)CNC(=O)[C@H](CCC(=O)O)NC(=O)C(C)(C)NC(=O)[C@@H](N)Cc1c[nH]cn1)[C@@H](C)O)C(C)C)C(=O)N[C@@H](CCCCNC(=O)COCCOCCNC(=O)COCCOCCNC(=O)CC[C@H](NC(=O)CCCCCCCCCCCCCCCCC(=O)O)C(=O)O)C(=O)N[C@@H](Cc1c[nH]c2ccccc12)C(=O)N[C@H](C(=O)N[C@H](C(=O)N[C@@H](CCC(=O)O)C(=O)NCC(=O)NCC(N)=O)C(C)C)C(C)C [compound 68] (H-H[Aib]EGS[αMeF]TSDV[αMeS]S[αMeF]LEGEAA[αMeK]EFIK([AEEA-AEEA-γGlu-C18 diacid])WVVEGG-NH2; N-terminus assumed) | 22.1 pM | 15.5 pM | 18.8 pM | 92.3% | 86.2% | 76.8% | 48.6% | 39.8% | 27.4% | ≥ 25 nM | ≥ 25 nM | 97.4% | 95.4% | 96.4% | 95.4% | 93.9% | 94.9% | 100% | 96.5% | 94.7% | remaining at 2 h (pepsin): 92.2%; remaining at 4 h (pepsin): 88.2%; remaining at 8 h (pepsin): 86%; remaining at 24 h (pepsin): 85.3%; EC50 [3, 9]: ≥ 25 nM; EC50 [3, 10]: ≥ 25 nM; EC50 (GLP-1R (INS1e assay); [11]): 3780 pM; EC50 (GLP-1R (INS1e assay); [12]): 2690 pM; EC50 (GLP-1R (INS1e assay); [13]): 4870 pM

Source: patent US10414811B2, “Protease-resistant lipidated GLP-1 analogs” (MEDIMMUNE LIMITED, priority 2015, dated 2019)
